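Briefly, cells in 96-well plates were exposed to five compound concentrations for 48 h, and endpoints were estimated by linear interpolation. GI50 = concentration required for 50% inhibition of growth.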 Active and inactive are the calls of the source. No stated cut-off is given here; in the data, active = GI50 up to about 1.1 µM and inactive = higher.
Assays:
Experiment in all cases: growth of human tumour cells (NCI), 48 h
DLD-1 = tested on: DLD-1
LXFL 529 = tested on: LXFL 529
M19-MEL = tested on: M19-MEL
KM-20L2 = tested on: KM-20L2
DMS-273 = tested on: DMS-273
DMS-114 = tested on: DMS-114
XF498 = tested on: XF498
RXF 631 = tested on: RXF 631
HOP-18 = tested on: HOP-18

Measured: GI50

CN(Cc1ccccc1)C(=O)c1ccccc1C(=O)O
inactive: DLD-1 > 100 µM | LXFL 529 > 100 µM | M19-MEL > 100 µM | KM-20L2 > 100 µM | DMS-273 > 100 µM | DMS-114 > 100 µM | XF498 > 100 µM | RXF 631 > 100 µM

Nc1nc(N)c(CCCCc2ccccc2)c(N)n1
inactive: DLD-1 > 100 µM | LXFL 529 > 100 µM | M19-MEL > 100 µM | KM-20L2 > 100 µM | DMS-273 > 100 µM | DMS-114 > 100 µM | XF498 > 100 µM

CCOC(=O)N1CCc2cc(OC)c(OC)c3c2c1cc1cc(OC)c(OC)cc13
active: DMS-273 0.667 µM | XF498 0.67 µM
inactive: DLD-1 1.3 µM | LXFL 529 3.78 µM | M19-MEL 1.88 µM | KM-20L2 1.36 µM | DMS-114 1.55 µM | RXF 631 2.42 µM | HOP-18 28.1 µM

O=C1/C=C(/c2ccc(O)cc2)[C@@H](O)Cc2ccc(O)cc2O1
inactive: DLD-1 > 100 µM | LXFL 529 63.7 µM | M19-MEL > 100 µM | KM-20L2 > 100 µM | DMS-114 51.3 µM | RXF 631 38.2 µM

N[C@H]1C2C3CC4C5CC(C42)C1(c1ccccc1)C53 (stereo partly specified)
inactive: DLD-1 > 100 µM | LXFL 529 > 100 µM | M19-MEL > 100 µM | KM-20L2 > 100 µM | DMS-273 > 100 µM | DMS-114 > 100 µM | XF498 > 100 µM | HOP-18 > 100 µM

C=Nc1ccc([N+](=O)[O-])cc1
inactive: DLD-1 > 100 µM | LXFL 529 > 72.8 µM | M19-MEL > 100 µM | KM-20L2 > 100 µM | DMS-273 > 100 µM | DMS-114 > 100 µM | XF498 > 100 µM | HOP-18 > 26.1 µM

Cc1cc(N(CCC#N)CCC#N)ccc1/C=C(\NC(=O)/C=C/c1ccccc1)NC(=O)Nc1ccc(Cl)cc1
inactive: DLD-1 75 µM | M19-MEL 93.1 µM | KM-20L2 5.37 µM | DMS-273 5.04 µM | DMS-114 17.3 µM | XF498 > 100 µM
active: LXFL 529 0.652 µM

N/N=C1\C(=O)N(C2CCCCCC2)C(=O)C1C(=O)NC1CCCCCC1 (stereo unspecified)
inactive: DLD-1 41.5 µM | LXFL 529 22.8 µM | M19-MEL 37.9 µM | KM-20L2 19.5 µM | HOP-18 31 µM

CCC1=CCC(P(=O)(c2ccccc2)c2ccccc2)CC1C (stereo unspecified)
inactive: LXFL 529 41.8 µM | M19-MEL 39.5 µM | KM-20L2 37.1 µM | DMS-273 36.3 µM | DMS-114 32.9 µM | XF498 40.1 µM | HOP-18 22.8 µM

CCCN(CCC)c1c([N+](=O)[O-])cc(C(=O)N(C)C)cc1[N+](=O)[O-]
inactive: DLD-1 > 100 µM | LXFL 529 > 100 µM | M19-MEL 92 µM | DMS-273 30.2 µM | DMS-114 33.4 µM | XF498 54.7 µM

CCCCC/C=C1\CCC(CN2CCOCC2)C1=O (stereo unspecified)
inactive: DLD-1 5.94 µM | LXFL 529 5.32 µM | M19-MEL 19 µM | KM-20L2 13.8 µM | DMS-114 13.6 µM | XF498 17.4 µM | RXF 631 12.1 µM | HOP-18 14.2 µM

C[C@]12CCC(=O)C(O)=C1CC[C@@H]1C2CC[C@]2(C)NC(=O)CCC12 (stereo partly specified)
inactive: LXFL 529 > 100 µM | M19-MEL > 100 µM | KM-20L2 > 100 µM | DMS-273 > 100 µM | DMS-114 > 100 µM | XF498 > 100 µM | RXF 631 > 100 µM | HOP-18 > 100 µM

C/C(N)=[N+](/C)[O-]
inactive: DLD-1 46.6 µM | LXFL 529 > 100 µM | M19-MEL 40.5 µM | KM-20L2 > 100 µM | DMS-114 18.4 µM | XF498 > 100 µM | RXF 631 > 100 µM | HOP-18 > 100 µM

N=C(N)NCCCS(=O)(=O)Nc1ccc(Nc2c3ccccc3nc3cc([N+](=O)[O-])ccc23)cc1
inactive: DLD-1 30.1 µM | LXFL 529 5.62 µM | M19-MEL 3.63 µM | KM-20L2 23.9 µM | DMS-273 4.21 µM | DMS-114 4.72 µM | XF498 1.91 µM | RXF 631 25.7 µM | HOP-18 20.8 µM

CCNC(=O)O/N=C1\CCC2[C@@H]3CC=C4C[C@@H](OC(=O)NCC)CC[C@]4(C)C3CC[C@]12C (stereo partly specified)
active: LXFL 529 1.01 µM | DMS-114 0.358 µM | XF498 0.0792 µM
inactive: DLD-1 6.71 µM | M19-MEL 1.65 µM | KM-20L2 2.44 µM | DMS-273 1.22 µM | RXF 631 4.26 µM | HOP-18 1.7 µM

CCOC(=O)C(C)(c1cn(C)c2ccccc12)c1cn(C)c2ccccc12
inactive: DLD-1 > 100 µM | LXFL 529 > 100 µM | M19-MEL > 100 µM | KM-20L2 > 100 µM | DMS-273 > 100 µM | DMS-114 79.6 µM | XF498 32.3 µM | RXF 631 50.8 µM
